Test results from patent US5036081A, “Calcium absorption promoter” (Takeda Chemical Industries, Ltd., priority 1988, dated 1991).

What was measured:
[1] = system: bone resorption (antebrachial bones, radius and ulna, of a fetus); experiment: tissue or blood; format: cell-based, Sprague-Dawley rat; settings: for ^45 Ca released into medium: 2 days, mean ± S.D. (n = 5)
Experimental: Effect of N-(1,3-dihydroxy-2-propyl)valiolamine and 1,25(OH)2 vitamin D3 on bone resorption
The bone resorption rate was determined by the method of Raisz (J. Clin. Invest. 44, 103-116, 1965). Thus, one Sprague-Dawley rat on day 18 of gestation was subcutaneously dosed with 50 μCi of ^45 Ca (an isotope of calcium, in CaCl2) and laparotomy was performed on the next day. The fetuses were aseptically taken out and under a dissecting microscope, the bilateral antebrachial bones (radius and ulna) of a fetus were cut off from the trunk. The connective tissues and cartilages were removed as much as possible to prepare a sample for bone culture. Each piece of bone was cultured in 0.6 ml of BGJb medium (Fitton-Jackson modification, GIBCO Laboratories, U.S.A., supplemented with 2 mg/ml of bovine serum albumin) at 37° C. for 24 hours and after addition of AO-128 at a final concentration of 10 μg/ml or 1,25(OH)2 vitamin D3 at a concentration of 0.8 pg/ml, was further incubated in the same medium for 2 days. The ^45 Ca radioactivity in the medium and that in the bone were respectively counted and the rate (%) of ^45 Ca release from the bone into the medium was calculated by means of the following equation. [formula]
The bones from another fetus of the same litter were incubated without addition of the test compounds for 2 days as controls. The means±S.D. of values found from 5 pieces of bone in each group was calculated and the percentage (%) of the mean value relative to the mean value of the control group was calculated.

[2] = Dietary calcium absorption promoting effect in rats (medicated diet; body weight, food consumption, urinary and plasma calcium); format: in vivo, male rats (Jcl: SD); settings: for Body weight / Plasma calcium / Food consumption / Urinary calcium: mean ± S.D., n=6; for Urinary calcium: ** = 1% level of significance vs control
Source text: Dietary calcium absorption promoting effect of N-(1,3-dihydroxy-2-propyl)valiolamine in rats
Five-week-old male rats (Jcl: SD) were divided into 2 groups and one group (control group) was given a regular diet (CE-2. Japan Clea Co.) while the other group was put on a medicated diet, i.e. CE-2 supplemented with N-(1,3-dihydroxy-2-propyl)valiolamine (AO-128). The level of addition of AO-128 was 10 ppm during the first 10 days and 25 ppm during the subsequent 7 days. On days 3, 10 and 17 of feeding, the body weight, food consumption, urinary calcium excretion, and plasma calcium concentration were determined.

[3] = Acute oral toxicity in rats; settings: rat, in vivo, rats (Wistar)
[4] = Acute oral toxicity in mice; settings: mouse, in vivo, mice (NRMI)
[5] = Exogenous calcium absorption promoting effect in rats (oral sucrose + calcium carbonate load, 24 hr urinary calcium); format: in vivo, male rats (Jcl: SD); settings: for Urinary calcium: sucrose 2.5 g/kg, calcium carbonate 400 mg/kg, 24 hr urine, mean ± S.D.
Experimental: Exogenous calcium absorption promoting effect of N-(1,3-dihydroxy-2-propyl)valiolamine in rats
Eight-week-old male rats (Jcl: SD) fasted for 20 hours were orally dosed with 72.5% sucrose aqueous solution [2.5 g (sucrose)/kg (body weight)], 5% calcium carbonate aqueous suspension [400 mg (CaCO3)/kg (body weight)] and 0.015, 0.05 or 0.15% aqueous AO-128 solution [0.3, 1.0 or 3.0 mg ((AO-128)/kg (body weight)] and the 24 hr urine was collected for the determination of urinary calcium. The animals were deprived of food during urine collection but had free access to water. The results are shown in Table 2.

[6] = Day 17, 10 ppm first 10 days then 25 ppm 7 days in diet

In the case of `C=C1/C(=C\C=C2/CCC[C@]3(C)[C@@H]([C@H](C)CCCC(C)(C)O)CC[C@@H]23)C[C@@H](O)C[C@@H]1O` [1,25(OH)2 vitamin D3, reference compound], the “^45 Ca released into medium” value ([1]; 0.8 pg/ml, control 12.3 ± 2.2, *p < 0.001) is reported as 26.6 ± 2.2% and the fold induction at 800 fg/mL ([1]; Rattus norvegicus, 48 h, read-out: increase in the release of ^45 Ca into the medium) is reported as 2.2.

In the case of `OCC(CO)N[C@H]1C[C@](O)(CO)[C@@H](O)[C@H](O)[C@H]1O` [AO-128, N-(1,3-dihydroxy-2-propyl)valiolamine], the “body weight gain (in words)” value ([2]; AO-128 group, diet 10 then 25 ppm) is reported as “a tendency of suppressed body weight gain”, the Body weight ([2]; Day 3, 10 ppm in diet) is reported as 143 ± 7 g and the Plasma calcium ([2]; Day 3, 10 ppm in diet) is reported as 10.8 ± 0.5 mg/dL. It also gave a Food consumption ([2]; Day 3, 10 ppm in diet, * = 5% level of significance vs control) of 12.7 ± 1.7 g/day, a Urinary calcium ([2]; Day 3, 10 ppm in diet) of 1.99 ± 0.67 mg/day and a Body weight ([2]; Day 10, 10 ppm in diet) of 176 ± 8 g. It also gave a Food consumption ([2]; Day 10, 10 ppm in diet) of 22.7 ± 2.3 g/day, a Plasma calcium ([2]; Day 10, 10 ppm in diet) of 10.3 ± 0.5 mg/dL and a Urinary calcium ([2]; Day 10, 10 ppm in diet) of 2.10 ± 0.54 mg/day. The Body weight [2, 6] was 250 ± 14 g, the Food consumption [2, 6] was 24.5 ± 2.0 g/day and the Plasma calcium [2, 6] was 9.9 ± 0.3 mg/dL. The “urinary calcium excretion (in words)” value ([2]; all determination days) was “increases”, the “food consumption (in words)” value ([2]; day 3) was “slight decrease on day 3” and the “food consumption (in words)” value ([2]; day 10) was “recovery on day 10”. The “food consumption (in words)” value ([2]; day 17) was “a tendency of increase in day 17”, the “plasma calcium concentration (in words)” value ([2]; days 3, 10 and 17) was “no significant change” and the LD50 [3] was about 20000 mg/kg. The “effect on bone resorption (in words)” value ([1]; 10 μg/ml) was “no change”, the “^45 Ca released into medium” value ([1]; 10 μg/ml, control 12.7 ± 3.2) was 12.6 ± 2.5% and the LD50 [4] was 14700 to 21500 mg/kg. It also gave a Urinary calcium ([5]; AO-128 0.3 mg/kg oral, n=7) of 311 ± 214 µg/day, a Urinary calcium ([5]; AO-128 1.0 mg/kg oral, n=6, * = 2% level of significance vs control) of 441 ± 172 µg/day and a Urinary calcium ([5]; AO-128 3.0 mg/kg oral, n=6, ** = 1% level of significance vs control) of 517 ± 195 µg/day. For the same compound, the “absorption of calcium (in words)” value ([5]; administered concurrently with a carbohydrate and calcium, based on the two experiments) was “increases the absorption of calcium” and the “urinary calcium (in words)” value ([5]; concurrent with calcium carbonate and sucrose) was “dose-dependent increase”.
